Patent publication US20190262307A1, “IGURATIMOD AS AN MIF INHIBITOR” (THE FEINSTEIN INSTITUTE FOR MEDICAL RESEARCH, priority 2016, published 2019)

What was measured:
[1] = test system: LPS-treated human peripheral blood monocytes; assay: LPS-induced cytokine release in human monocytes enriched by negative selection; type: cell-based; conditions: for TNFα release: concentrations up to 50 μM
From the text: Preparation of Peripheral Blood Cells: Human peripheral blood was collected in sodium heparin (IRB#12-200A) or obtained as Leukopaks from New York Blood Center (New York, N.Y.). Mononuclear cells were isolated by density gradient centrifugation in Ficoll-Paque Plus (GE Healthcare; Pittsburgh, Pa.). Monocytes were either purified by two-hour adherence to Primaria culture plates (Corning Life Sciences; Corning, N.Y.) or enriched by negative magnetic selection using Monocyte Isolation Kit II (Miltenyi Biotech; Auburn, Calif.). All monocyte preps were cultured in RPMI supplemented with 10% human AB serum, 100 units/mL penicillin-streptomycin, and 2 mM L-glutamine and used within 24 hours. Macrophages were differentiated from adherence-purified monocytes by incubation with 10 ng/mL human M-CSF (Sigma) for seven days, with media replenishment performed on days 3 and 5.
Cytokine Production Assays: For LPS-induced cytokine release, negative selection-enriched monocytes (human) or mixed peripheral blood leukocytes (murine) were plated at a density of 2×10^5 cells/mL in 96-well plates. Cells were pre-treated with MIF inhibitors in 0.1% DMSO (final) for 1 hour before stimulation with LPS from E. coli R515 (Axxora; Farmingdale, N.Y.): 24 hours for human cells, 5 hours for murine cells. Cell-free supernatants were collected and stored at −80° C. for cytokine determinations by ELISA; 1:2 dilutions were used for TNFα and 1:3 dilutions for IL-8 and MCP-1.

[2] = test system: LPS-stimulated human peripheral blood monocytes; conditions: cited from earlier work
[3] = test system: neonates pups with CDH; assay: Nitrofen congenital diaphragmatic hernia (CDH) model, neonate pups; type: in vivo; conditions: vs Nitrofen group; for VGEF / eNOS phosphorylation: P<0.05
[4] = test system: C57/BL6 and MIF−/− mice, LPS; assay: Non-lethal endotoxemia, serum TNFα; type: in vivo, mouse; conditions: 90 minutes post-LPS, 20 mg/kg i.p.
From the text: Animal Experiments: The Institutional Animal Care and Use Committee of the Feinstein Institute for Medical Research reviewed and approved all animal protocols prior to initiation of experiments. Male BALB/c mice were purchased from the Jackson Laboratory (Bar Harbor, Me.) and used for endotoxemia experiments at ages 8-10 weeks. MIF KO animals were maintained on a C57/BL6 NCr background from Charles River Laboratories (Stone Ridge, N.Y.); these animals were used alongside matched wild-type animals for endotoxemia experiments at ages 8-12 weeks.
Endotoxemia: Endotoxemia was induced by intraperitoneal injection of LPS from E. coli O111:B4 (Sigma). […] Blood was collected by cardiac puncture and allowed to clot 20 minutes at room temperature and 20 minutes at 4° C.; sera were isolated by centrifugation at 300×g for 10 minutes and stored at −20° C. for further analysis by TNFα ELISA (1:3 dilution).

[5] = test system: adherence-purified human peripheral blood monocytes; assay: Glucocorticoid synergy in vitro, adherence-purified monocytes; type: cell-based; conditions: LPS
Procedure: Glucocorticoid Synergy in vitro: The methods of Roger et al. and Kerschbaumer et al. were adapted for these experiments (17, 21). […] Cell-free supernatants were collected and analyzed immediately with a murine TNFα ELISA at a 1:10 dilution. THP-1 cells were plated at a density of 2×10^5 cells/well in a 96-well plate and used the same day with the same treatment conditions as RAW 264.7 cells, except that THP-1 cells were incubated with LPS for 16 hours prior to isolation of cell-free supernatants. Supernatants were analyzed using a human TNFα ELISA at a 1:10 dilution. Human peripheral blood mononuclear cells isolated by adherence (described above) were plated at a density of 2×10^5 cells/well in a 96-well plate and used the same day with the same treatment conditions as THP-1 cells. Supernatants were analyzed using a human TNFα ELISA at a 1:20 dilution. […] Cells were treated under the same conditions as THP-1 cells and supernatants were analyzed using a human TNFα ELISA at a 1:10 dilution.
For all above experiments, cytotoxicity was assessed using an MTT assay (1-2 hour incorporation); no significant cytotoxicity effects were observed under any treatment conditions unless otherwise noted.

[6] = early communications; cited from earlier work
[7] = 1 h pre-treatment, 1 ng/mL LPS 24 h

In the case of Oc1ccc(-c2cnc3ccccn23)cc1O [Compound K-664.1], the MCP-1 release [1, 7] is reported as “stronger suppressors of MCP-1 than TNFα” and the TNFα release [1, 7] is reported as “moderate suppression”.

In the case of COc1ccc2c(c1)c(CC(=O)O)c(C)n2C(=O)c1ccc(Cl)cc1 [indomethacin], the IL-1β intracellular accumulation [2] is listed as “increases intracellular accumulation” and the IL-1β release [2] is listed as “inhibits release”.

With N[C@H](Cc1cc(I)c(Oc2cc(I)c(O)c(I)c2)c(I)c1)C(=O)O [d-T4] the IL-8 release [1, 7] was “moderate suppression” and the TNFα release [1, 7] was “almost completely spared”.

In the case of COC(=O)CC1CC(c2ccc(O)cc2)=NO1 (centres unmarked) [ISO-1], the TNFα release [1, 7] is reported as “moderate suppression”, the “Arginase II” value [3] is reported as “significantly lower” and the VGEF [3] is reported as “significant increase”. The eNOS phosphorylation [3] was “significant increase”.

For O=C(O/N=C/c1ccc(O)cc1)C1CCCCC1 [OXIM-11], the TNFα release [1, 7] was “almost completely spared” and the “suppression of the cytokines analyzed (TNFα, MCP-1, IL-8)” value ([1]; LPS-treated monocytes) was “minimal suppression”.

For CC(C)(C)COC(=O)CC1CC(c2ccc(O)c(F)c2)=NO1 (centres unmarked) [ISO-92], the MCP-1 release [1, 7] was “stronger suppressors of MCP-1 than TNFα”, the TNFα release [1, 7] was “almost completely spared” and the “Arginase II” value [3] was “significantly lower”. The VGEF [3] was “significant increase” and the eNOS phosphorylation [3] was “significant increase”.

For CS(=O)(=O)Nc1cc2occ(NC=O)c(=O)c2cc1Oc1ccccc1 [Compound T-614, 3-formylamino-7-methylsulfonylamino-6-phenoxy-4H-1-benzopyran-4-one], the “serum TNFα, MIF−/− mice” value [4] is listed as “no significant effect”, the “concentration at which TNFα is suppressed (as low as)” value [5] is listed as no more than 10 µM and the oral bioavailability [6] is listed as “orally bioavailable”.
